Results from patent publication US10508113B2, “Inhibitors of tyrosine kinase 2 mediated signaling” (AbbVie Inc., priority 2018, dated 2019).

Target: T1, Jak2 (Homo sapiens, UniProt O60674)
T1 construct: Cell Type: UT7 cells engineered to express the erythropoietin (EPO) receptor; endogenous in cells; host or cells: UT7 cells engineered to express the EPO receptor
Assay: Jak2 (PSTATS UT7) alpha screen assay: inhibition of EPO induced phosphorylation of STAT5 in UT7 cells
Assay type: cell-based
Settings: for EC50: EPO induced pSTAT5, UT7 cells; for Tyk2 selectivity over Jak2: calculated from tabulated EC50 data (Jak2 / Tyk2)
In short: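 EPO-receptor-expressing UT7 cells, starved overnight of EPO, preincubated 30 min at 37 °C with compound (8-point 1:3, top 25 µM final), then stimulated with 1 nM EPO for 20 min. After lysis, pSTAT5 (Tyr694/699) measured by SureFire AlphaScreen; EC50 from dose-response of percent activity.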

T1 sequence (O60674 whole entry): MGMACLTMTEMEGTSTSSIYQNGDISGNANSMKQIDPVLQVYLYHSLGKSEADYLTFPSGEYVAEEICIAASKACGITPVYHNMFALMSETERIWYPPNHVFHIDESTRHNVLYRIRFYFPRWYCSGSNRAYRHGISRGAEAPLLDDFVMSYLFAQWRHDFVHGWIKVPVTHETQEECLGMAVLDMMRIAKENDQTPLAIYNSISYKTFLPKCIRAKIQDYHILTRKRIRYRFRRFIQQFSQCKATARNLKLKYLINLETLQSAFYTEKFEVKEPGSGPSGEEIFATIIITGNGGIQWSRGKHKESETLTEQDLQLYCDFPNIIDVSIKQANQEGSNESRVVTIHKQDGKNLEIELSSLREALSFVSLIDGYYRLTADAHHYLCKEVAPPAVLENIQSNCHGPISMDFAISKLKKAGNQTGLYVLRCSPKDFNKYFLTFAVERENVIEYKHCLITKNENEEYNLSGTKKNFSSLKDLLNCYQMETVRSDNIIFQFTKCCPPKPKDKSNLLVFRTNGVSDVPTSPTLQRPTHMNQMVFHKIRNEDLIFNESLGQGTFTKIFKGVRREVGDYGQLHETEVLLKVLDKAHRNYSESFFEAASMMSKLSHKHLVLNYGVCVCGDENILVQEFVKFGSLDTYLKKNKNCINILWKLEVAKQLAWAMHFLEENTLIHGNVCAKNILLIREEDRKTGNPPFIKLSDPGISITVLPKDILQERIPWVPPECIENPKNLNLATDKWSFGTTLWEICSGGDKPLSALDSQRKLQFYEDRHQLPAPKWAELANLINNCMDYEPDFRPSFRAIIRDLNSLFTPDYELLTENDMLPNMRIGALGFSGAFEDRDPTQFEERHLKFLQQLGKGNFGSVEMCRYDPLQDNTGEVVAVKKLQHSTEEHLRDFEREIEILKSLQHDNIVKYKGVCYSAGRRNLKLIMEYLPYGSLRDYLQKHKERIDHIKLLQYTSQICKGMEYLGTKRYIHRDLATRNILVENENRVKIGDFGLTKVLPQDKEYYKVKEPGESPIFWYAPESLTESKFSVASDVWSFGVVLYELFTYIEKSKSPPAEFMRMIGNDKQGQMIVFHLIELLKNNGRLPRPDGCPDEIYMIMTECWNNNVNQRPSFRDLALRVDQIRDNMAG

Row | EC50 [µM] | Tyk2 selectivity over Jak2 | SMILES
1 | > 25 | >223-fold | COCc1cc(-c2cn(C)c3cnc(NC(C)=O)cc23)nc([C@]2([C@@H](C)O)CCOC2)c1 [Example 22.4, N-(3-(6-((R)-3-((R)-1-hydroxyethyl)tetrahydrofuran-3-yl)-4-(methoxymethyl)pyridin-2-yl)-1-methyl-1H-pyrrolo[2,3-c]pyridin-5-yl)acetamide]
2 | > 25 | >170-fold | COCc1cc(-c2cn(C)c3cnc(NC(C)=O)cc23)nc([C@]2([C@H](C)O)CCOC2)c1 [Example 22.3, N-(3-(6-((R)-3-((S)-1-hydroxyethyl)tetrahydrofuran-3-yl)-4-(methoxymethyl)pyridin-2-yl)-1-methyl-1H-pyrrolo[2,3-c]pyridin-5-yl)acetamide]
